One assay has as its target Large T antigen (Simian virus 40, UniProt P03070). It counts as functional, Betapolyomavirus macacae.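 Note: Confirmatory-stage PubChem screen for compounds that inhibit SV40 T antigen.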
In assay [1] the target is FAD-linked sulfhydryl oxidase ALR (Homo sapiens, UniProt P55789). The experiment in a line: inhibitors of human ALR sulfhydryl oxidase, dose response, biochemical, H2O2 detection, luminescence, cherry-pick (AID 493248).
A further assay deals with Nonstructural protein 1 (Influenza A virus, UniProt Q194T2). It is filed as functional, Influenza A virus (A/California/07/2009(H1N1)).
Chain of Nonstructural protein 1 (Q194T2 whole entry): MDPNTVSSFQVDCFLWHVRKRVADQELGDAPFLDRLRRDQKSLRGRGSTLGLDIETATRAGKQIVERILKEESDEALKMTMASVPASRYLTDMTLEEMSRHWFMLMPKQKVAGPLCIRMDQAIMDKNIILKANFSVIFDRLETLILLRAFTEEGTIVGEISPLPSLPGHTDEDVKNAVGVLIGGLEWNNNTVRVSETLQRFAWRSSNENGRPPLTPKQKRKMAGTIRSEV
The next assay has as its target Genome polyprotein (dengue virus type 2, UniProt P29990). The experiment in a line: Dengue-2 NS5 methyltransferase inhibitors, primary screen, biochemical, confirmation dose response (AID 588689). It counts as functional.
Assay [2] deals with T1, Histone-lysine N-methyltransferase NSD2 (Homo sapiens, UniProt O96028).
T1 sequence (O96028 whole entry): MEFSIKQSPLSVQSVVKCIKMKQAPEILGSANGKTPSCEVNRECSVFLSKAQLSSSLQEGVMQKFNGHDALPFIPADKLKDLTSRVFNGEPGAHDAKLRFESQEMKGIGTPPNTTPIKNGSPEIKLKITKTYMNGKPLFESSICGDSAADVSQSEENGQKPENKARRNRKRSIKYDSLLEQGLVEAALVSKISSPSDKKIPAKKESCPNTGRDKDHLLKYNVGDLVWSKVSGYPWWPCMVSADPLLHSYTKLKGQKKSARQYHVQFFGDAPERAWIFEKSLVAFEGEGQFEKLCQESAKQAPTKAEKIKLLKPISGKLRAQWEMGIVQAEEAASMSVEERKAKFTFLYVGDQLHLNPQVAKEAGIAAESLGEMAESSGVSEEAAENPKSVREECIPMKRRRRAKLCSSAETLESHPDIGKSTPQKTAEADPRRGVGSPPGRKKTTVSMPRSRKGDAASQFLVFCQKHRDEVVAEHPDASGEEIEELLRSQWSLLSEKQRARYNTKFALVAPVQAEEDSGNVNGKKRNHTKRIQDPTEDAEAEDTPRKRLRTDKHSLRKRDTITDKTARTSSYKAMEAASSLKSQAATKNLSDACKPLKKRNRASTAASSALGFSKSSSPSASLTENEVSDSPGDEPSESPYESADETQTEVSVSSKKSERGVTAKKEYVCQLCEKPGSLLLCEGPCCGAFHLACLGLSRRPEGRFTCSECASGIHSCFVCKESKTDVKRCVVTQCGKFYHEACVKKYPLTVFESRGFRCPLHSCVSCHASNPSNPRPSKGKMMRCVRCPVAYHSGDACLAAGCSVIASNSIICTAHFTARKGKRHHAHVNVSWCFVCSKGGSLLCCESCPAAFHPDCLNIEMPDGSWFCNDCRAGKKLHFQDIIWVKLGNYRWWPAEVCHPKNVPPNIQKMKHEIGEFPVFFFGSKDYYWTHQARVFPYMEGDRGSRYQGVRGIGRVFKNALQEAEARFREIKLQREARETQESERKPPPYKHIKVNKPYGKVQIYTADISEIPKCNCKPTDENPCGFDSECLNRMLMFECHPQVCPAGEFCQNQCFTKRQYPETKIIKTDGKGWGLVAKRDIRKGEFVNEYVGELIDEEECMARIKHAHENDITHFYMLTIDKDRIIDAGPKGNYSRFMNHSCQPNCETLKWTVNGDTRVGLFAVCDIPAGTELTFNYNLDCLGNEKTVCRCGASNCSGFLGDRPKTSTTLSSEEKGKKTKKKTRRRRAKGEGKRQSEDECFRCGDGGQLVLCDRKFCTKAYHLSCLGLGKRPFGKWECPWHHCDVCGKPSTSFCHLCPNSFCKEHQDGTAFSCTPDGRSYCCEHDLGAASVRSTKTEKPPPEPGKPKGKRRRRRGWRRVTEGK
It counts as biochemical.

Assay [3] concerns the target Luciferin 4-monooxygenase (Photinus pyralis, UniProt P08659). The experiment in a line: firefly luciferase enzyme inhibitors, dose response, biochemical, luminescence (AID 1891).
Assay [4] can be described thus: Luminescence Cell-Based Dose Confirmation HTS to Identify Inhibitors of Platelet Dense Granule Release. [Related pubchem assays: 1663 (Primary HTS), 1678 (Summary of Project)]. It counts as functional.
In assay [5] the target is T2, Rac GTPase-activating protein 1 (Homo sapiens, UniProt Q9H0H5).
T2 sequence (Q9H0H5 whole entry): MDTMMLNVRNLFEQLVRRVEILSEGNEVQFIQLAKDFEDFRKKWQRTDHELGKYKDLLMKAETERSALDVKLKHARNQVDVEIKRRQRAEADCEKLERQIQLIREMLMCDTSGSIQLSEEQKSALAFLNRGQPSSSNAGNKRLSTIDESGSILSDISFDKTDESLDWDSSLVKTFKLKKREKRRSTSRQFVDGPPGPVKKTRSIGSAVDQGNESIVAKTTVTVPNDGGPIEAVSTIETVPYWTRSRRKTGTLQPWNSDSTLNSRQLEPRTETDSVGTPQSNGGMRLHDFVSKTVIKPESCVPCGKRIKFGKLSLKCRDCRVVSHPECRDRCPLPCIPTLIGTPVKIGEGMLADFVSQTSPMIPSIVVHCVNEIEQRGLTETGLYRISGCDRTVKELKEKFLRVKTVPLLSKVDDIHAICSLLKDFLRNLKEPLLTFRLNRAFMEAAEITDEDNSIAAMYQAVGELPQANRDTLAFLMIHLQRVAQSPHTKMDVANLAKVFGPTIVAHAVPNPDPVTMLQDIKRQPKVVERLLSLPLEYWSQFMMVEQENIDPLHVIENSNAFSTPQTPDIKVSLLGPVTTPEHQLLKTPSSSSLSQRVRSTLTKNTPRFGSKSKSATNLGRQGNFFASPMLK
The experiment in a line: MgcRacGAP GTPase-activating activity inhibitors, confirmation, biochemical, ADP Hunter fluorescence, primary and confirmatory (AID 624330). It counts as functional.

Assay [6] addresses T3, Corticotropin-releasing factor receptor 2/Corticotropin-releasing factor-binding protein (Homo sapiens, UniProt P24387+Q13324).
T3 sequence (Q13324 whole entry): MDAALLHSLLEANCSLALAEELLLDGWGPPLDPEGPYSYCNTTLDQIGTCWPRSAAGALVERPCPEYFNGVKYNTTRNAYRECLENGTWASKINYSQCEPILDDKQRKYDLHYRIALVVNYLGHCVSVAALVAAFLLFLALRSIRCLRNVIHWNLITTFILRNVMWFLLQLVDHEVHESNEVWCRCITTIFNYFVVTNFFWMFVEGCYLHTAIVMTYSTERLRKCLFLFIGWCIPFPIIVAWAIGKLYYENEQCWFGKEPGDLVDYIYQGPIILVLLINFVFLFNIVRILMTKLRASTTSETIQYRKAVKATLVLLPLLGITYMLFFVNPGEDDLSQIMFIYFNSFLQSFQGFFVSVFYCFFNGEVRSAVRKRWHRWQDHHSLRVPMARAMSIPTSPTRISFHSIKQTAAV
T3 sequence (P24387 whole entry): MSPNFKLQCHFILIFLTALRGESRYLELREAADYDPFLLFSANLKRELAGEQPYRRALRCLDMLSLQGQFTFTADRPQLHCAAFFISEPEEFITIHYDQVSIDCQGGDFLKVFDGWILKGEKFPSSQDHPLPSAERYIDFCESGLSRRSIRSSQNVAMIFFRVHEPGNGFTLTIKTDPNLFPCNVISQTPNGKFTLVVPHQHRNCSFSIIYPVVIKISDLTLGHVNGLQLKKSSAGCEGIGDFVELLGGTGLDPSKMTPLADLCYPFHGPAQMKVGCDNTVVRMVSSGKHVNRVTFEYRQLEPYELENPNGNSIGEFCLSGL
The experiment in a line: Dose Response confirmation of uHTS hits for small molecule antagonists of the CRF-binding protein and CRF-R2 receptor complex. It counts as functional. Conditions: read-out: IC50_Mean.

Assay [7] concerns the target T3, Corticotropin-releasing factor receptor 2/Corticotropin-releasing factor-binding protein. The experiment in a line: activators of CRF receptor 2 with binding protein – uHTS hits, confirmation (AID 602473). It is filed as functional. To be noted: read-out: EC50_Mean.
Assay [8] is described as follows: HEp-2 cell cytotoxicity, dose response, cytotoxicity control for RSV inhibitor project, HTS (AID 2410). It counts as functional. To be noted: human respiratory syncytial virus.
The next assay deals with H9c2. The experiment in a line: cells. It is filed as functional, cell-based. Conditions: Rattus norvegicus, H9c2, Myocardium.
The target of assay [9] is T4, Ubiquitin-conjugating enzyme E2 N (Homo sapiens, UniProt P61088).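 Note: Dose-response confirmation in a TR-FRET assay detecting UBC13-driven polyubiquitin chain formation, inhibition measured.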
T4 sequence (P61088 whole entry): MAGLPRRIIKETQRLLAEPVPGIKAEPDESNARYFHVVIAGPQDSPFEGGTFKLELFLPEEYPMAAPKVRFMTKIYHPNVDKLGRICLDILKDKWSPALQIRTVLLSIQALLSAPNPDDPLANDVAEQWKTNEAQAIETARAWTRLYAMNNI
It counts as functional.

Active and inactive are the calls of the source.

Chain of Large T antigen (P03070 whole entry): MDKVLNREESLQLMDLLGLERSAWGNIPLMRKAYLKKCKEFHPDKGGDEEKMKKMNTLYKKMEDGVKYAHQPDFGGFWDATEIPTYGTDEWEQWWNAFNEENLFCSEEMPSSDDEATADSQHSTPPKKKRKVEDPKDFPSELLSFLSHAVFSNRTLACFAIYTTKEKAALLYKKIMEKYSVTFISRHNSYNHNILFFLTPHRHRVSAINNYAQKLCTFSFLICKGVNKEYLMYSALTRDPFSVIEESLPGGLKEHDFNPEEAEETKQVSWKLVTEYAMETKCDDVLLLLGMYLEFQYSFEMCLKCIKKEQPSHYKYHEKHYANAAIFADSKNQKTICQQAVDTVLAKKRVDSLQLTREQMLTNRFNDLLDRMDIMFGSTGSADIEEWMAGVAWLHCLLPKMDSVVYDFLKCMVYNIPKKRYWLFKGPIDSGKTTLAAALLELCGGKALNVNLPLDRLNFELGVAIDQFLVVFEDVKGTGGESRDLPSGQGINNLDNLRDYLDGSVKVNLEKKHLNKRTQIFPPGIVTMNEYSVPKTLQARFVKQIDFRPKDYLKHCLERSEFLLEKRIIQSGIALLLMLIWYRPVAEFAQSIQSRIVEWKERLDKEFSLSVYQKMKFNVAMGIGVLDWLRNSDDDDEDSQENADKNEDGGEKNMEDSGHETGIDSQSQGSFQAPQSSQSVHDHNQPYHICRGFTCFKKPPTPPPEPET
Chain of Luciferin 4-monooxygenase (P08659 whole entry): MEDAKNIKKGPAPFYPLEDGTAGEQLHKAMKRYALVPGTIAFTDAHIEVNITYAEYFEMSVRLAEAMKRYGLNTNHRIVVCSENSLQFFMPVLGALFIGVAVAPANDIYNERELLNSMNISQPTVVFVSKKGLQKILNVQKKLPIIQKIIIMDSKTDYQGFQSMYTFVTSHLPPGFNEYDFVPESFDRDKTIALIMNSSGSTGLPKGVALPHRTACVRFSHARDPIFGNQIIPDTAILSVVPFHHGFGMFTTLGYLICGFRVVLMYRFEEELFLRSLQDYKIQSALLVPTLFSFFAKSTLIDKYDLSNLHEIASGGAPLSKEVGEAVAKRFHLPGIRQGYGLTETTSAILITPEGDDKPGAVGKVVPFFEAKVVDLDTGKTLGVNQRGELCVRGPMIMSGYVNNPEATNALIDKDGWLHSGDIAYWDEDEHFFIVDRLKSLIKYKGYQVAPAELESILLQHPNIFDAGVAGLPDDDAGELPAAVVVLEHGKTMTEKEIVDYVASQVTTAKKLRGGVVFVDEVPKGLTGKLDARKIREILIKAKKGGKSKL
Chain of Genome polyprotein (P29990 2492-3391 limits assumed): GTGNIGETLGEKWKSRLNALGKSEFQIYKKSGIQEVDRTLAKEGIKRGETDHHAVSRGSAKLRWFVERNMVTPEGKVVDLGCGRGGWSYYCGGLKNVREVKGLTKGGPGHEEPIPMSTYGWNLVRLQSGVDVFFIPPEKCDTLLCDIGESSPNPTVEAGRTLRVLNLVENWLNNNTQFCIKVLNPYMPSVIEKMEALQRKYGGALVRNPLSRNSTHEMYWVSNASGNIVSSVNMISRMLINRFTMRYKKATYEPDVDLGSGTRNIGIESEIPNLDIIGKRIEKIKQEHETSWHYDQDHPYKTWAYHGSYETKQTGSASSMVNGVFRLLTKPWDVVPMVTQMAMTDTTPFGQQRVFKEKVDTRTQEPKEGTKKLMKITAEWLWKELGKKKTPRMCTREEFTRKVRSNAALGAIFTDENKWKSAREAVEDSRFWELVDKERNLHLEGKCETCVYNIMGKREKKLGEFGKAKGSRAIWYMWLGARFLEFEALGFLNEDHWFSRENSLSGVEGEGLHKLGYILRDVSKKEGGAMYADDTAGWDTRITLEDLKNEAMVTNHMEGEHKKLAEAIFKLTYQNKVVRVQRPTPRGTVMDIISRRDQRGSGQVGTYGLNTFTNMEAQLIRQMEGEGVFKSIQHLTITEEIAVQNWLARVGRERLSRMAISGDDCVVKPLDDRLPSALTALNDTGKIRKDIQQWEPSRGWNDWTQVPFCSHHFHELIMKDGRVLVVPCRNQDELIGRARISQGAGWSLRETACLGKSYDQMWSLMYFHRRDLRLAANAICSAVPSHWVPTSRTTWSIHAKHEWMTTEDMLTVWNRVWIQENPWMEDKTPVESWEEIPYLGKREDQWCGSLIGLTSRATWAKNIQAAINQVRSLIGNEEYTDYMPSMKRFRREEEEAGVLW
Chain of FAD-linked sulfhydryl oxidase ALR (P55789 whole entry): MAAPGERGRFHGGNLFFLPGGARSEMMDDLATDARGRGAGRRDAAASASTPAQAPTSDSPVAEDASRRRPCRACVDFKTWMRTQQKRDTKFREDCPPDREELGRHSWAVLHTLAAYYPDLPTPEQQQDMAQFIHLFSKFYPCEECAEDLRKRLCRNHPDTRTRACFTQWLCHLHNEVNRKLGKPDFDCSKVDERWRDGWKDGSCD

One may read the AC50 as the midpoint of the concentration-response curve, whichever way the signal moves. Turning to `CCn1cnc2cc(NCc3ccc(N(C)C)cc3)ccc21`, the IC50 at Large T antigen is 15.8 µM (active). Besides, the AC50 in assay [1] is 5.86 µM (active).

As to `CN(C)c1ccc(NC(=O)CN2CCC(O)(c3ccccc3)CC2)cc1`, the IC50 on Large T antigen is 7.29 µM (active).

Consider `COC(=O)c1ccccc1NC(=O)COC(=O)c1ccccc1N=Nc1ccc(N(C)C)cc1`, for which, at Nonstructural protein 1, the IC50 was 21.4 µM (active).

`O=C1ON=C(c2ccccc2)/C1=C/c1ccc(OS(=O)(=O)c2ccccc2)cc1`: the IC50 on Large T antigen is 67.3 µM (active); on Genome polyprotein it was 32.3 µM (active).

In the case of `CCN(CC)CCCN(Cc1cc2cc(OC)ccc2nc1O)C(=O)Nc1ccc(F)cc1`, the AC50 in assay [2] is 12.4 µM (active).

As to `COCc1cc(C)nc(SCC[N+](C)(C)CC(=O)c2ccc(Br)cc2)c1C#N`, the EC50 in [3] and in assay [4] was > 112 µM (not active) in each case.

In the case of `CCN(CC)CCN1C(=O)C(O)=C(C(=O)c2ccc(C)cc2)C1c1cccnc1` (configuration not stated), the IC50 at Large T antigen is 18.9 µM (active).

`Cc1ccccc1N1C(=O)NC(=O)/C(=C\c2cnn(-c3ccccc3)c2)C1=O`: the IC50 was 44.9 µM (active) at Large T antigen, > 100 µM (active) on Genome polyprotein and 118 µM (active) in assay [5].

Take `COc1ccc2cc(C(=O)N3CCN(Cc4ccc5c(c4)OCO5)CC3)[nH]c2c1`: the EC50 in assay [3] was > 112 µM (not active); in [4], > 112 µM (not active); in assay [7], > 53 µM (inactive). Besides, the IC50 in assay [6] was > 47.1 µM (inactive).

`Cc1ccc(NC(=O)Cc2nc(CCl)cs2)cc1`: the EC50 in assay [3] and in assay [4] was > 112 µM (not active) each time.

As a reminder, the CC50 is the concentration at which the toxic effect on the cells reaches its halfway point. With `CCn1ncc(CN2CCCC(C(=O)Nc3cccc(-c4cc5ccccc5[nH]4)c3)C2)c1C` (configuration not stated), in assay [8], the CC50 was 16.1 µM (active). Further, the IC50 at Nonstructural protein 1 is > 100 µM (active).

`CCOC(=O)N1CCC(N2C(=O)c3ccccc3C2Nc2cc(OC)c(OC)c(OC)c2)CC1` (configuration not stated): the EC50 in [3] was > 112 µM (not active); in assay [4] it was 94.3 µM (active). The IC50 in the assay on H9c2 was > 79 µM (inactive).

On to `CC(C)(C)C1=CC(=Nc2ccccc2N)C=C(C(C)(C)C)C1=O`, for which the IC50 on Nonstructural protein 1 is 10.9 µM (active).

Turning to `CSC1=NSC2=NC(=O)/C(=C/c3coc4ccccc4c3=O)C(=N)N12`, the AC50 in assay [2] is 16.5 µM (active).

Turning to `CC1CC(C)(C)CC2(C1)NC(=O)N(CC(=O)Nc1ccc3[nH]c(O)nc3c1)C2=O` (configuration not stated), the IC50 in assay [9] is > 20 µM (inactive).

As for `COc1ccccc1NS(=O)(=O)c1ccc(NC(C)=O)cc1`, the EC50 in assay [3] and in assay [4] was > 112 µM (not active) throughout.

As to `O=C(CCNC(=O)Cn1ccc2ccccc2c1=O)NCCN1CCN(c2ccccc2F)CC1`, in [9], the IC50 is > 20 µM (inactive).

`CCC[C@@H](CN1CCC[C@H]1CN1C(N)=NC[C@H]1CC(C)C)N1C[C@@H]([C@H](C)CC)N(CCCC2CCCC2)C1=N`: in assay [9], the IC50 is > 20 µM (inactive).

For `COc1ccc(/C=N/NC(=O)c2nonc2C)cc1`, the values for the EC50 in assay [3] and in [4] were 9.4 µM (active) and 2.84 µM (active), respectively.

With `O=C(Nc1ccccc1C(=O)N/N=C/c1ccncc1)c1ccccc1`, the EC50 in [3] is < 0.088 µM (active); in [4], 3.06 µM (active).

Take `CC(C)N1C[C@@]23C=C[C@@H](O2)C(C(=O)OCc2ccccc2)[C@H]3C1=O` (some centres not stated): the EC50 in assay [3] and in assay [4] was > 112 µM (not active) in each case.

The record behind these values is ChEMBL document CHEMBL1201862, “PubChem BioAssay data set” (2004).
